# Reference: ChEMBL document CHEMBL4823282, “Novel Broad-Spectrum Antimicrobial Peptide Derived from Anoplin and Its Activity on Bacterial Pneumonia in Mice” (J Med Chem, 2021)
# Where a SMILES comes first, the peptide text is derived from it. Bridges are numbered along the chain shown (N, C = ends). [ ]: non-standard residue; d: D form. The star is where a group is joined. Ileψ(thiazoline)Cys = CC[C@H](C)[C@H](N)C1=N[C@H](C(=O)*)CS1; dOrn = NCCC[C@@H](N)C(=O)O
# Columns and labels:
# [1] = Selectivity ratio of MHC10 for BALB/C mouse erythrocytes to MIC for gram positive bacteria; type: toxicity
# [2] = system: Bacteria; assay: Antibacterial activity against Gram-positive bacteria incubated for 18 hrs by CLSI based broth dilution method; type: functional
# [3] = system: Staphylococcus aureus; assay: Antibacterial activity against Staphylococcus aureus ATCC 25923 incubated for 18 hrs by CLSI based broth dilution method; type: functional
# [4] = system: Bacteria; assay: Antibacterial activity against Gram-negative bacteria incubated for 18 hrs by CLSI based broth dilution method; type: functional
# [5] = system: Erythrocyte; assay: Hemolytic activity in BALB/C mouse erythrocytes incubated for 1 hr by absorbance method; type: ADME, cell-based
# [6] = Selectivity ratio of MHC10 for BALB/C mouse erythrocytes to MIC for fungi; type: toxicity
# [7] = system: Enterococcus faecalis; assay: Antibacterial activity against Enterococcus faecalis ATCC 29212 incubated for 18 hrs by CLSI based broth dilution method; type: functional
# [8] = Selectivity ratio of MHC10 for BALB/C mouse erythrocytes to MIC for bacteria; type: toxicity
# [9] = system: Acinetobacter baumannii; assay: Antibacterial activity against Acinetobacter baumannii ATCC 19606 incubated for 18 hrs by CLSI based broth dilution method; type: functional; settings: ATCC 19606 = CIP 70.34 = JCM 6841
# [10] = system: Pseudomonas aeruginosa; assay: Antibacterial activity against Pseudomonas aeruginosa ATCC 27853 incubated for 18 hrs by CLSI based broth dilution method; type: functional
# [11] = system: Escherichia coli; assay: Antibacterial activity against Escherichia coli ATCC 25922 incubated for 18 hrs by CLSI based broth dilution method; type: functional
# [12] = system: Bacteria; assay: Antibacterial activity against bacteria incubated for 18 hrs by CLSI based broth dilution method; type: functional
# [13] = Selectivity ratio of MHC10 for BALB/C mouse erythrocytes to MIC for gram-negative bacteria; type: toxicity
# [14] = system: Bacillus subtilis; assay: Antibacterial activity against Bacillus subtilis ATCC 23857 incubated for 18 hrs by CLSI based broth dilution method; type: functional
# [15] = system: Klebsiella pneumoniae; assay: Antibacterial activity against Klebsiella pneumoniae ATCC 700603 incubated for 18 hrs by CLSI based broth dilution method; type: functional
# [16] = system: Fungi; assay: Antibacterial activity against fungi incubated for 18 hrs by CLSI based broth dilution method; type: functional
# [17] = system: Staphylococcus epidermidis; assay: Antibacterial activity against Staphylococcus epidermidis ATCC 12228 incubated for 18 hrs by CLSI based broth dilution method; type: functional
# [18] = Cytotoxicity against human glomerular mesangial cells incubated for 12 hrs by MTT assay; type: cell-based; settings: Glomerular mesangial cell
MIC [2],MIC [3],MIC [4],MIC [7],MIC [9],MIC [10],MIC [11],MIC [12],MIC [14],MIC [15],MIC [16],MIC [17],Compound,selectivity ratio at 18 h [1],MHC10 [5],selectivity ratio [6],selectivity ratio [8],selectivity ratio [13],IC50 [18]
76.1 µM,32 µM,45.3 µM,128 µM,128 µM,32 µM,32 µM,58.7 µM,64 µM,64 µM,58.7 µM,128 µM,CC[C@H](C)[C@H](NC(=O)CN)C(=O)N[C@@H](CCCNC(=N)N)C(=O)N[C@@H](Cc1c[nH]c2ccccc12)C(=O)N[C@@H](CCCCN)C(=O)N[C@@H](Cc1ccccc1)C(=O)N[C@@H](Cc1c[nH]c2ccccc12)C(=O)N[C@@H](CCCCN)C(=O)N[C@@H](Cc1ccccc1)C(=O)N[C@H](C(N)=O)[C@@H](C)O (H-GIRWKFWKFT-NH2),6.73,>= 512 uM,8.72,8.72,11.3,≥ 512 µM
6.7 µM,8 µM,13.5 µM,16 µM,16 µM,16 µM,16 µM,9.51 µM,4 µM,16 µM,9.51 µM,4 µM,C[C@@H](O)[C@H](NC(=O)[C@H](CCCCN)NC(=O)[C@H](Cc1c[nH]c2ccccc12)NC(=O)[C@H](CCCNC(=N)N)NC(=O)[C@H](CCCCN)NC(=O)[C@H](Cc1c[nH]c2ccccc12)NC(=O)[C@H](Cc1c[nH]c2ccccc12)NC(=O)CN)C(=O)N[C@@H](Cc1c[nH]c2ccccc12)C(=O)N[C@@H](Cc1c[nH]c2ccccc12)C(N)=O (H-GWWKRWKTWW-NH2),6.09,40.79 µM,4.29,4.29,3.02,49.5 µM
,< 1 µM,,4 µM,< 1 µM,< 1 µM,< 1 µM,,< 1 µM,< 1 µM,,< 1 µM,C[C@@H](O)[C@H]1C(=O)N2C(C(=O)O)=C(S[C@@H]3CN[C@H](C(=O)N(C)C)C3)[C@H](C)[C@H]12 [MEROPENEM],,,,,,
13.5 µM,8 µM,22.6 µM,32 µM,128 µM,32 µM,32 µM,17.4 µM,4 µM,32 µM,17.4 µM,32 µM,N=C(N)NCCC[C@H](NC(=O)[C@H](CCCNC(=N)N)NC(=O)[C@H](Cc1c[nH]c2ccccc12)NC(=O)[C@H](CCCNC(=N)N)NC(=O)[C@H](CCCNC(=N)N)NC(=O)[C@H](Cc1c[nH]c2ccccc12)NC(=O)[C@H](Cc1c[nH]c2ccccc12)NC(=O)[C@@H](N)CCCNC(=N)N)C(=O)N[C@@H](Cc1c[nH]c2ccccc12)C(=O)N[C@@H](Cc1c[nH]c2ccccc12)C(N)=O (H-RWWRRWRRWW-NH2),3.23,43.67 µM,2.5,2.5,1.93,11.2 µM
,< 1 µM,,16 µM,2 µM,4 µM,4 µM,,2 µM,< 1 µM,,32 µM,CN[C@@H]1[C@H](O[C@H]2[C@H](O[C@H]3[C@H](O)[C@@H](O)[C@H](N=C(N)N)[C@@H](O)[C@@H]3N=C(N)N)O[C@@H](C)[C@]2(O)C=O)O[C@@H](CO)[C@H](O)[C@H]1O [STREPTOMYCIN],,,,,,
,< 1 µM,,8 µM,4 µM,8 µM,8 µM,,< 1 µM,32 µM,,< 1 µM,NC[C@H]1O[C@H](O[C@H]2[C@H](O)[C@@H](O[C@H]3O[C@H](CO)[C@@H](O)[C@H](N)[C@H]3O)[C@H](N)C[C@@H]2N)[C@H](O)[C@@H](O)[C@@H]1O [KANAMYCIN],,,,,,
64 µM,128 µM,76.1 µM,256 µM,256 µM,64 µM,64 µM,69.8 µM,32 µM,128 µM,69.8 µM,16 µM,CC(C)C[C@H](NC(=O)[C@H](CC(C)C)NC(=O)[C@@H](NC(=O)[C@H](CCCCN)NC(=O)[C@H](Cc1ccccc1)NC(=O)[C@H](CCCNC(=N)N)NC(=O)[C@H](CCCCN)NC(=O)[C@H](CC(C)C)NC(=O)[C@H](CC(C)C)NC(=O)CN)[C@@H](C)O)C(N)=O (H-GLLKRFKTLL-NH2),8,>= 512 uM,7.34,7.34,6.73,≥ 512 µM
45.3 µM,64 µM,53.8 µM,128 µM,128 µM,64 µM,64 µM,49.4 µM,64 µM,128 µM,49.4 µM,8 µM,CC(C)C[C@H](NC(=O)[C@H](Cc1ccccc1)NC(=O)CN)C(=O)N[C@@H](CCCCN)C(=O)N[C@@H](CCCNC(=N)N)C(=O)N[C@@H](Cc1ccccc1)C(=O)N[C@@H](CCCCN)C(=O)N[C@H](C(=O)N[C@@H](CC(C)C)C(=O)N[C@@H](Cc1ccccc1)C(N)=O)[C@@H](C)O (H-GFLKRFKTLF-NH2),8.48,384 µM,7.78,7.78,7.14,209 µM
128 µM,256 µM,215 µM,≥ 512 µM,≥ 512 µM,256 µM,256 µM,166 µM,32 µM,256 µM,166 µM,64 µM,CC(C)C[C@H](NC(=O)CN)C(=O)N[C@@H](CC(C)C)C(=O)N[C@@H](CCCCN)C(=O)N[C@@H](CCCNC(=N)N)C(=O)N[C@@H](CC(C)C)C(=O)N[C@@H](CCCCN)C(=O)N[C@H](C(=O)N[C@@H](CC(C)C)C(=O)N[C@@H](C)C(N)=O)[C@@H](C)O (H-GLLKRLKTLA-NH2),4,>= 512 uM,3.08,3.08,2.38,≥ 512 µM
,< 1 µM,,4 µM,128 µM,64 µM,64 µM,,< 1 µM,≥ 512 µM,,16 µM,CC1(C)S[C@@H]2[C@H](NC(=O)Cc3ccccc3)C(=O)N2[C@H]1C(=O)O [PENICILLIN G],,,,,,
≥ 512 µM,≥ 512 µM,≥ 512 µM,≥ 512 µM,≥ 512 µM,≥ 512 µM,≥ 512 µM,≥ 512 µM,≥ 512 µM,≥ 512 µM,≥ 512 µM,≥ 512 µM,CC(C)C[C@H](NC(=O)[C@H](CC(C)C)NC(=O)[C@@H](NC(=O)[C@H](CCCCN)NC(=O)[C@H](C)NC(=O)[C@H](CCCNC(=N)N)NC(=O)[C@H](CCCCN)NC(=O)[C@H](C)NC(=O)[C@H](CC(C)C)NC(=O)CN)[C@@H](C)O)C(N)=O (H-GLAKRAKTLL-NH2),1,>= 512 uM,1,1,1,≥ 512 µM
,< 1 µM,,< 1 µM,< 1 µM,< 1 µM,< 1 µM,,< 1 µM,< 1 µM,,< 1 µM,C[C@@H](O)[C@H]1C(=O)N2C(C(=O)O)=C(SCCNC=N)C[C@H]12 [IMIPENEM ANHYDROUS],,,,,,
,2 µM,,≥ 512 µM,32 µM,< 1 µM,< 1 µM,,< 1 µM,8 µM,,2 µM,CO/N=C(\C(=O)N[C@@H]1C(=O)N2C(C(=O)O)=C(COC(C)=O)CS[C@H]12)c1csc(N)n1 [CEFOTAXIME],,,,,,

Compound,MIC [2],MIC [3],MIC [4],MIC [7],MIC [9],MIC [10],MIC [11],MIC [12],MIC [14],MIC [15],MIC [16],MIC [17],selectivity ratio at 18 h [1],MHC10 [5],selectivity ratio [6],selectivity ratio [8],selectivity ratio [13],IC50 [18]
CC[C@H](C)[C@H](N)C1=N[C@H](C(=O)N[C@@H](CC(C)C)C(=O)N[C@H](CCC(=O)O)C(=O)N[C@H](C(=O)N[C@H]2CCCCNC(=O)[C@H](CC(N)=O)NC(=O)[C@@H](CC(=O)O)NC(=O)[C@H](Cc3cnc[nH]3)NC(=O)[C@@H](Cc3ccccc3)NC(=O)[C@H]([C@@H](C)CC)NC(=O)[C@@H](CCCN)NC2=O)[C@@H](C)CC)CS1 [BACITRACIN] ({Ileψ(thiazoline)Cys}-L[dE]IK[dOrn]I[dF]H[dD]N; lactam 4-C),,16 µM,,32 µM,≥ 128 µM,≥ 512 µM,≥ 512 µM,,≥ 512 µM,≥ 512 µM,,8 µM,,,,,,
